From patent US6787125B1, “Compound screening method” (priority 1999, dated 2004)

Columns and labels:
[1] = system: mutant C. elegans strain with a constitutively pumping pharynx; assay: Pharynx pumping assay (calcein-AM fluorescence), screen for inhibitors; format: in vivo; details: compounds and worms incubated approximately 1 hour, then calcein-AM, one further hour
Source text: Depending on the specific assay which it is desired to perform, different C. elegans strains can be used. Screens to select for chemical substances inhibiting the pumping rate of the C. elegans pharynx are generally performed with mutant C. elegans strains which have a constitutively pumping pharynx. Wild-type worms can also be used in this screen, but the mutants worms are preferred. […] The selected mutant C. elegans with the constitutively pumping pharynx pumps medium into the gut at a constant rate and reduction/rescue of this phenotype can easily be scored, which facilitates the detection and selection of chemical substances.
(§1) The pumping rate of the pharynx is measured indirectly by adding a marker molecule precursor such as calcein-AM to the medium and measuring the formation of marker dye in the C. elegans gut. Calcein-AM is cleaved by esterases present in the C. elegans gut to release calcein, which is a fluorescent molecule. […] Therefore by measuring the accumulation of calcein in the nematode gut, detectable by fluorescence, it is possible to determine the pumping rate of the pharynx.
(§2) To perform the pharynx pumping screen with calcein-AM, a concentration of between 1 and 100 μM calcein-AM is added into the medium. Preferably 5 to 10 μM calcein-AM is used. Fluorescence is measured using a multi-well plate reader (Victor2, Wallac Oy, Finland) with following settings: Ex/Em=485/530.
160 well known drugs selected from the pharmacopoeia were used in a screen to test the performance of the pharynx pumping method. The drugs tested belong to a variety of categories, which included analgesics, antidiabetics, antiarrythmics, calcium channel blockers, diuretics, cholinesterase inhibitors, proton pump inhibitors and antidepressants.
The drugs were randomly distributed over the wells of two 96-well multi-well plates. The pumping rate of the C. elegans pharynx was measured using calcein-AM as described in Example 2.
In a first assay, the substrate calcein-AM was added to the medium at the same time as the worms and the compounds. The fluorescence was measured after approximately one hour.
In a variation of this protocol, compounds and worms are added to the medium first and incubated for approximately 1 hour. After this incubation period that allowed for the chemical substances to activate or to inhibit the pumping rate of the pharynx, calcein-AM was added. The plates where then further incubated for one hour prior to fluorescence measurement in the microtiter plate reader.

C. elegans pharynx [2] = assay: Pharynx pumping assay (calcein-AM), strain not specified: dilution series, insecticides, Tocris library; format: in vivo; details: for effect of compounds of known insecticidal activity on the pharynx pumping rate: FIGS. 18 to 21
Protocol: as §1, §2
To determine the sensitivity of the pharynx pumping assay, dilution series were made for some chemical substances. These include the chemicals clomipramine, tamoxifen, BP554, pimazide and thapsigargin. A concentration range was made from less than 1 μM up to 100 μM, and the pumping assay was repeated as described in previous examples.

wild-type worms = assay: Movement assay (autofluorescence), wild-type worms; format: in vivo, C. elegans; details: for effect on movement of wild-type worms, compound alone: FIG. 8, 100% represents normal movement of wild-type worms
Protocol: Advanced multi-well plate readers are able to detect sub-regions of the wells of multi-well plates. By using these plate readers it is possible to take measurements in selected areas of the surface of the wells of the multi-well plates. If the area of measurement is centralized, so that only the middle of the well is measured, a difference in nematode autofluorescence (fluorescence which occurs in the absence of any external marker molecule) or optical density can be observed in the wells containing nematodes that move normally as compared to wells containing nematodes that are defective for movement. For the wells containing the nematodes that move normally, a low level of autofluorescence or optical density will be observed, whilst a high level of autofluorescence or optical density can be observed in the wells that contain the nematodes that are defective in movement. Optical density is measured using a variation of the platelet aggregation assay, which is well known in the art. Using the MRX revelation device from Dynex (USA), optical density can be measured at multiple points per well, showing the precipitation pattern of the nematodes.
This is because the mutant is mutated in the acetylcholine esterases, resulting in high concentrations of acetylcholine in the synapses. Neostigmine, a well known acetylcholine esterase inhibitor, was added to wild-type worms distributed over the wells of a multi-well plate and submitted to the movement assay after approximately 2 hours.
As receptor antagonist, hexamethonium will also result in a decrease of movement, as it prevents proper signalling.
In another experiment, wild-type worms were contacted with inhibitory concentrations of neostigmine to prevent movement. After a small incubation period, various concentrations of hexamethonium were added and the wells were submitted to the movement assay (measurement of autofluorescence). […] At very high concentrations of hexamethonium (although lower than the concentrations shown in last panel) a toxic effect is observed, resulting in a decrease in movement. This toxic effect is probably due to the presence of high concentrations of both neostigmine and hexamethonium.

[3] = system: ace-1; ace-2 double mutant; assay: Movement assay, ace-1; ace-2 double mutant; format: in vivo, C. elegans; details: increasing concentrations of hexamethonium, absence of neostigmine; compared with the neostigmine experiment
Protocol: An analogous experiment was performed with the ace-1; ace-2 double mutant. In this experiment, increasing concentrations of hexamethonium were added to the wells in the absence of neostigmine.

C. elegans pharynx [4] = details: Kerr et al.; cited from earlier work
[5] = concentration range from less than 1 μM up to 100 μM

## CN1[C@@H]2CC[C@H]1C[C@@H](OC(=O)C(CO)c1ccccc1)C2 (stereo partly drawn) [Atropine]
[1]
  activity on the pharynx pumping rate found with the variation of the protocol: detection

## CN1[C@@H]2CC[C@H]1C[C@@H](OC(=O)[C@H](CO)c1ccccc1)C2 [L-Hyoscyamine]
[1]
  activity on the pharynx pumping rate found with the variation of the protocol: detection

## COP(=O)(OC)C(O)C(Cl)(Cl)Cl (stereo not drawn) [Metrifonate]
[1]
  activity on the pharynx pumping rate found with the variation of the protocol: detection

## CC/C(=C(\c1ccccc1)c1ccc(OCCN(C)C)cc1)c1ccccc1 [Tamoxifen]
C. elegans pharynx [2]; [5]
  effect on pharynx pumping rate, dose-response curve: inhibitors

## C/C=C(/C)C(=O)O[C@H]1C(C)=C2[C@H]([C@@H]1OC(=O)CCCCCCC)[C@@](C)(OC(C)=O)C[C@H](OC(=O)CCC)[C@@]1(O)[C@H]2OC(=O)[C@@]1(C)O [Thapsigargin]
wild-type worms; observation, method not stated
  effect on movement: decreased movement
C. elegans pharynx [2]; at low concentration
  effect on pharynx pumping rate, dose-response curve: enhancement of the pumping
C. elegans pharynx [2]; [5]
  effect on pharynx pumping rate, dose-response curve: decrease of the pumping rate
C. elegans pharynx [2]; general statement
  effect on pharynx pumping: decrease in the pharynx pumping rate

## N=C(N)S/C=C\C(=O)O [ZAPA]
[1]
  activity on the pharynx pumping rate found with the variation of the protocol: detection

## C[N+](C)(C)CCCCCC[N+](C)(C)C [hexamethonium, Hexamethonium]
[3]
  movement of ace-1; ace-2 double mutant: comparable
wild-type worms
  effect on movement of wild-type worms, compound alone: represses the movement of wild-type worms, but significant less than neostigmine
wild-type worms; increasing concentrations of hexamethonium
  movement of wild-type worms in presence of inhibitory concentrations of neostigmine: more movement
wild-type worms; very high concentrations of hexamethonium together with neostigmine
  toxic effect in movement assay: toxic effect

## CN(C)C(=O)Oc1cccc([N+](C)(C)C)c1 [neostigmine, Neostigmine]
wild-type worms
  effect on movement of wild-type worms, compound alone: clear decrease in movement

## NCCc1c[nH]c2ccc(O)cc12 [serotonin]
C. elegans pharynx [4]
  effect on pumping, seen as fluorescence of GFP-calmodulin: enhancers of pumping

## Ivermectin
C. elegans pharynx [4]
  effect on pumping, seen as fluorescence of GFP-calmodulin: inhibitors of pumping
C. elegans pharynx [2]
  effect of compounds of known insecticidal activity on the pharynx pumping rate: reduction in the pharynx pumping rate

## Picrotoxin
C. elegans pharynx [2]
  effect of compounds of known insecticidal activity on the pharynx pumping rate: reduction in the pharynx pumping rate
